From article PMC8032764 (Scientific Reports, 2021)
Like-named read-outs stand apart in the source and are kept apart here.

Assays:
Adrenergic β1 = tested on: T1, Adrenergic β1; test: Cerep binding; parameters: species or system human; conditions: 10 μM; [3H](-)CGP 12177; hum. recomb. (HEK-293)
T1 construct: host or cells: HEK-293

Muscarinic M5 = tested on: T2, Muscarinic M5; test: Cerep binding; parameters: species or system human; conditions: 10 μM; [3H]4-DAMP; hum. recomb. (CHO)
T2 construct: host or cells: CHO

Dopamine transporter = tested on: T3, Dopamine transporter; test: Cerep binding; parameters: species or system human; conditions: 10 μM; [3H]BTCP; hum. recomb. (CHO)
T3 construct: host or cells: CHO

Serotonin transporter = tested on: T4, Serotonin transporter; test: Cerep binding; parameters: species or system human; conditions: 10 μM; [3H]imipramine; hum. recomb. (CHO)
T4 construct: host or cells: CHO

Muscarinic M4 = tested on: T5, Muscarinic M4; test: Cerep binding; parameters: species or system human; conditions: 10 μM; [3H]4-DAMP; hum. recomb. (CHO)
T5 construct: host or cells: CHO

SKCa channel = test: Cerep binding; conditions: 10 μM; [125I]apamin; rat cerebral cortex
Sigma (non-selective) = test: Cerep binding; conditions: 10 μM; [3H]DTG; rat cerebral cortex
Angiotensin AT1 = tested on: T6, Angiotensin AT1; test: Cerep binding; parameters: species or system human; conditions: 10 μM; [125I][Sar1,Ile8]-AT-II; hum. recomb. (HEK-293)
T6 construct: purchased Eurofins Cerep

Neurokinin NK3 = tested on: T7, Neurokinin NK3; test: Cerep binding; parameters: species or system human; conditions: 10 μM; [3H]SR 142801; hum. recomb. (CHO)
T7 construct: purchased Eurofins Cerep

Prostanoid IP (PGI2) = tested on: T8, Prostanoid IP (PGI2); test: Cerep binding; parameters: species or system human; conditions: 10 μM; [3H]iloprost; hum. recomb. (HEK-293)
T8 construct: host or cells: HEK-293

Plasma levels, PTZ test = type: in vivo, rat
Procedure: Following tonic convulsions, rats were immediately euthanized by decapitation. All other rats were euthanized by decapitation at the end of the 30 min observation period. Plasma samples were collected and frozen at − 80 °C for analysis of drug content.
The calibration range was from 1.0 to 5000 ng/mL. After protein precipitation with ethanol, the sample solution was injected onto a Gemini C18 trapping column (2 × 10 mm; Phenomenex, Torrance, CA, USA) and polar endogenous compounds and salts were rinsed off. Analytical separation was performed on an Atlantis T3 column (2.1 × 50 mm) (Waters, Milford, MA, USA), using methanol/water containing 0.1% formic acid as mobile phase. A drug analogue was used as an internal standard.

Adenosine A3 = tested on: T9, Adenosine A3; test: Cerep binding; parameters: species or system human; conditions: 10 μM; [125I]AB-MECA; hum. recomb. (HEK-293)
T9 construct: host or cells: HEK-293

GABAA-α5 receptors = biological target: T10, GABAA-α5 receptors (Homo sapiens, UniProt P18507+P31644); test: Receptor occupancy during EEG assessments; type: in vivo; conditions: 240 mg twice daily
T10 construct: occupancy at the GABAA-α5 subunit-containing receptors in the human brain after oral dosing; from tissue; host or cells: brain of healthy human volunteers, in vivo PET
T10 sequence (P31644 32-462): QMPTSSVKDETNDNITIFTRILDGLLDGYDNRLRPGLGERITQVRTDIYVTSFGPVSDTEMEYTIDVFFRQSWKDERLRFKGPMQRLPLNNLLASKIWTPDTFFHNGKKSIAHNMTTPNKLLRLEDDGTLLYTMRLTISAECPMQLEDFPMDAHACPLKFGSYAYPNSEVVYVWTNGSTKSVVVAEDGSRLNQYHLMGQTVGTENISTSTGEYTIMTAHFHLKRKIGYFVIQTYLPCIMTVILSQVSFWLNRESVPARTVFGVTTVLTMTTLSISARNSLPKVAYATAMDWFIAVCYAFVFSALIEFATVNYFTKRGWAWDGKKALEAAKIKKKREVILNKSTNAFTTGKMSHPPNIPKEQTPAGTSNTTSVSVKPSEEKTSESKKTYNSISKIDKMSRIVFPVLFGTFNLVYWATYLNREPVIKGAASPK
T10 sequence (P18507 40-467 limits assumed): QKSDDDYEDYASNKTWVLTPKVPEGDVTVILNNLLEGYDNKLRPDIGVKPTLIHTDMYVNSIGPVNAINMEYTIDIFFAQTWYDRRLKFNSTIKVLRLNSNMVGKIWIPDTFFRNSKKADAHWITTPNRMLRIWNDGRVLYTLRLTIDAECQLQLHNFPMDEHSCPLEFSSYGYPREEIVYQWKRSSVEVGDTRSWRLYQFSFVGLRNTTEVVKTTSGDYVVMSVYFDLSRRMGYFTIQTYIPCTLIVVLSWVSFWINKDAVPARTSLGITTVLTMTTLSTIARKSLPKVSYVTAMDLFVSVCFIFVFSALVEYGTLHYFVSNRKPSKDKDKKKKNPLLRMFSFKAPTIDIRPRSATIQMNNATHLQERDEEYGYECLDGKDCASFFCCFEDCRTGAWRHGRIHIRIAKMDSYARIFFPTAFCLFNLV
T10 sequence (P28472 26-473 partner): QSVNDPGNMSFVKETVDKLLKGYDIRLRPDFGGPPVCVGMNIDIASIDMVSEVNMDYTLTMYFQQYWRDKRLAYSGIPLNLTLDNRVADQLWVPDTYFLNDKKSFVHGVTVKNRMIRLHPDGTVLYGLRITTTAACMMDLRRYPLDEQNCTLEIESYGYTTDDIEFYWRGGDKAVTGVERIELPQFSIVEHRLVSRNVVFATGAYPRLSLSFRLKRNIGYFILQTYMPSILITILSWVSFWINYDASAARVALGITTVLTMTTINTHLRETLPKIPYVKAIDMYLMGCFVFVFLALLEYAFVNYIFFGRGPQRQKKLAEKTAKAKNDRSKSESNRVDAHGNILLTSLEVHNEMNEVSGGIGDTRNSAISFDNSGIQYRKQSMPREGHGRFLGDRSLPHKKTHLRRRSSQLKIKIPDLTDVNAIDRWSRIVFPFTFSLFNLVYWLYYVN

[1] = Pharmacokinetics, single intravenous dosing; type: in vivo; conditions: Beagle, dog, plasma, 1.0 mg/kg i.v.
Serotonin 5-HT1B = tested on: T11, Serotonin 5-HT1B; test: Cerep binding; conditions: 10 μM; [125I]CYP; rat cerebral cortex
T11 construct: purchased Eurofins Cerep

Dopamine D5 = tested on: T12, Dopamine D5; test: Cerep binding; parameters: species or system human; conditions: 10 μM; [3H]SCH 23390; hum. recomb. (GH4)
T12 construct: host or cells: GH4

Serotonin 5-HT6 = tested on: T13, Serotonin 5-HT6; test: Cerep binding; parameters: species or system human; conditions: 10 μM; [3H]LSD; hum. recomb. (CHO)
T13 construct: purchased Eurofins Cerep

Cc1onc(-c2ccc(F)cc2)c1COc1ccc(C(=O)N2CCS(=O)(=O)CC2)cn1 [basmisanil]
% Inhibition (Adrenergic β1): 6%
% Inhibition (Muscarinic M5): -7%
% Inhibition (Dopamine transporter): 19%
% Inhibition (Serotonin transporter): 5%
% Inhibition (Muscarinic M4): -4%
% Inhibition (SKCa channel): 3%
% Inhibition (Sigma (non-selective)): 58%
% Inhibition (Angiotensin AT1): 2%
% Inhibition (Neurokinin NK3): -9%
% Inhibition (Prostanoid IP (PGI2)): -1%
free plasma concentration (Plasma levels, PTZ test; female rats, 30 mg/kg): 2452 nM
free plasma concentration (Plasma levels, PTZ test; female rats, 100 mg/kg): 5079 nM
free plasma concentration (Plasma levels, PTZ test; male rats, 100 mg/kg): 1622 nM
% Inhibition (Adenosine A3): 6%
receptor occupancy at 240 mg (GABAA-α5 receptors; 14 days, read-out: occupancy of GABAA-α5 receptors): > 90%
receptor occupancy at 240 mg (GABAA-α5 receptors; day 14, 1 h post morning dose, read-out: receptor occupancy): 92 ± 3%
receptor occupancy at 240 mg (GABAA-α5 receptors; day 14, 4 h post morning dose, read-out: receptor occupancy): 94 ± 1.5%
half-life ([1]; n=3): 9.8 ± 0.8 h
clearance ([1]; n=3, read-out: Total CL): 2.2 ± 0.2 mL/min/kg
Vd ([1]; n=3, read-out: Vss): 1.7 ± 0.2 L/kg
% Inhibition (Serotonin 5-HT1B): 0%
% Inhibition (Dopamine D5): -11%
% Inhibition (Serotonin 5-HT6): 7%
